Source: paper PMC9578043 (Journal of medicinal chemistry, 2021)

Tests used:
ATTR-CM [1] = conditions: 441 ATTR-CM patients, compared to placebo; cited from earlier work
hereditary ATTR = conditions: patients with hereditary ATTR; cited from earlier work
TTR = conditions: ITC; cited from earlier work
[2] = Liver microsomal stability, human; format: in vitro ADME
[3] = Liver microsomal stability, rat; format: in vitro ADME
[4] = Liver microsomal stability, mouse; format: in vitro ADME
[5] = Liver microsomal stability, monkey; format: in vitro ADME, cynomolgus monkey; conditions: for half-life: cynomolgus monkey
serum RBP4 levels = system: serum RBP4 levels; design: species or system mice; conditions: mouse, in vivo, po
[6] = Kinetic solubility in PBS; format: physicochemical; conditions: pH 7.4
CYP2C9 = CYP2C9 (Homo sapiens, UniProt P11712); assay: CYP inhibition 2C9; format: in vitro ADME
CYP2C19 = CYP2C19 (Homo sapiens, UniProt P33261); assay: CYP inhibition 2C19; format: in vitro ADME
CYP2D6 = CYP2D6 (Homo sapiens, UniProt P10635); assay: CYP inhibition 2D6; format: in vitro ADME
CYP3A4 = CYP3A4 (Homo sapiens, UniProt P08684); assay: CYP inhibition 3A4; format: in vitro ADME
[7] = Plasma protein binding, human; format: in vitro ADME
[8] = Plasma protein binding, rat; format: in vitro ADME
ATTR-CM [9] = conditions: 28 day phase II, cited from earlier work

Sequence of CYP2C9 (P11712 whole entry): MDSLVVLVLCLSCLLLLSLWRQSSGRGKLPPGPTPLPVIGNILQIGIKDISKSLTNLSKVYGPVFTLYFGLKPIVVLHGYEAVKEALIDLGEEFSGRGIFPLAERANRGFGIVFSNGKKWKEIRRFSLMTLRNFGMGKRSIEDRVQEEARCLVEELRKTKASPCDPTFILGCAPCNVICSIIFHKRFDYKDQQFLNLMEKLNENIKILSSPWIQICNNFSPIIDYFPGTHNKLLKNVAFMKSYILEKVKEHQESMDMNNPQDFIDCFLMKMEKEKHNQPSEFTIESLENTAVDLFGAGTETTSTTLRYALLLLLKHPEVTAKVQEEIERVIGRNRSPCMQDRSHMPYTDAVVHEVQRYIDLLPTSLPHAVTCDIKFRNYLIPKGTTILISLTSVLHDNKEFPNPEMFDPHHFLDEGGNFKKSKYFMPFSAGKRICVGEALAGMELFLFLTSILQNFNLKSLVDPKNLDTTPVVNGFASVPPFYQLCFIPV
Sequence of CYP2D6 (P10635 whole entry): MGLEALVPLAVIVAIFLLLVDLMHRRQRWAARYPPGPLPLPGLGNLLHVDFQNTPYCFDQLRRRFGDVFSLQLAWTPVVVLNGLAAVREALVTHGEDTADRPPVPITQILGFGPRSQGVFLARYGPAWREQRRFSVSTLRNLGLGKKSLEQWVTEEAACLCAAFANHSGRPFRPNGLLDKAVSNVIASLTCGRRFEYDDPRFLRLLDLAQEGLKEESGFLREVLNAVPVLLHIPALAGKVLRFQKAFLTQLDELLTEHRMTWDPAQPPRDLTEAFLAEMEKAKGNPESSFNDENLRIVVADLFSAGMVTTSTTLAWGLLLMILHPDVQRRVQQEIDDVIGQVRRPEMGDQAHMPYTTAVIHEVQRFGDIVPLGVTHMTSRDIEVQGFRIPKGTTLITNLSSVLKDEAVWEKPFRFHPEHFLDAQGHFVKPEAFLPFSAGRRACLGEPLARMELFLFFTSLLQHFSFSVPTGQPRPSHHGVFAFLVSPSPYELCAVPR
Sequence of CYP2C19 (P33261 whole entry): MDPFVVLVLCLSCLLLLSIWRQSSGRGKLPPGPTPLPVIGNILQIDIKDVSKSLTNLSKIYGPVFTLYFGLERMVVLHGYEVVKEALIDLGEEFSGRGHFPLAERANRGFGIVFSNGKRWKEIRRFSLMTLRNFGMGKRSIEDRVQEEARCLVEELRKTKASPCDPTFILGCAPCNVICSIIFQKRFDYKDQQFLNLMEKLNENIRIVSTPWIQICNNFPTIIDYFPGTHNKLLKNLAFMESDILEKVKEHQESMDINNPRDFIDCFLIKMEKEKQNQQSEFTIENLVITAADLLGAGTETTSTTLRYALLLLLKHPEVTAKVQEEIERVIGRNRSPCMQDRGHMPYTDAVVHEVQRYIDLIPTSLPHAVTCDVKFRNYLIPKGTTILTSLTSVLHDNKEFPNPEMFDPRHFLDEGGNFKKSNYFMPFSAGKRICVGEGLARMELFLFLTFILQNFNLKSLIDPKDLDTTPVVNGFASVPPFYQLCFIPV
Sequence of CYP3A4 (P08684 whole entry): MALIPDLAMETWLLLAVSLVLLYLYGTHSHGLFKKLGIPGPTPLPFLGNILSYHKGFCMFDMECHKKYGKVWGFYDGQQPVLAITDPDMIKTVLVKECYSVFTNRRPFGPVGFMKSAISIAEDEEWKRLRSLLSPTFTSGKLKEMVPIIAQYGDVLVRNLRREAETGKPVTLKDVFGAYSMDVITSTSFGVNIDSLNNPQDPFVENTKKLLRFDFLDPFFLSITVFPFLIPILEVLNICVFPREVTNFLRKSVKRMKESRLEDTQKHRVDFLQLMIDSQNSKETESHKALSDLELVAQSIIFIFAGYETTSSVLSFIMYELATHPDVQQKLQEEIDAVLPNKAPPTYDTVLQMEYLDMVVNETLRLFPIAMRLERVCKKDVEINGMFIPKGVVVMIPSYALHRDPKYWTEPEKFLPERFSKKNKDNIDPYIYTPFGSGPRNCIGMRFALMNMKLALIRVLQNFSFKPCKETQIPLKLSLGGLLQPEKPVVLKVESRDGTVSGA

Row | SMILES | half-life ([2]; liver microsomes) | half-life ([3]; liver microsomes) | half-life ([4]; liver microsomes) | half-life ([5]; liver microsomes) | half-life ([2]; microsomes) | half-life ([3]; microsomes) | half-life ([4]; microsomes) | half-life ([5]; microsomes) | also measured
1 | O=C(O)c1ccc2nc(-c3cc(Cl)cc(Cl)c3)oc2c1 [tafamidis] | – | – | – | – | – | – | – | – | reduction of the rate of cardiovascular-related hospitalizations (ATTR-CM [1]): 32%; reduction of the risk of death (ATTR-CM [1]): 30%; patients who do not respond (hereditary ATTR): Approximately 30%; ΔH (TTR): -5.00 kcal/mol
2 | Cc1cc(F)c(N2CCN(c3c(C)n[nH]c3C)CC2)cc1C(=O)O [20i, 5-(4-(3,5-dimethyl-1H-pyrazol-4-yl)piperazin-1-yl)-4-fluoro-2-methylbenzoic acid] | > 1 h | > 1 h | > 1 h | > 1 h | – | – | – | – | –
3 | Cc1n[nH]c(C)c1N1CCN(c2cc(C(=O)O)ccc2Cl)CC1 [20e, 4-chloro-3-(4-(3,5-dimethyl-1H-pyrazol-4-yl)piperazin-1-yl)benzoic acid] | > 1 h | > 1 h | > 1 h | > 1 h | – | – | – | – | –
4 | Cc1n[nH]c(C)c1N1CCN(c2cc(C(=O)O)ccc2F)CC1 [compound 14, 3-(4-(3,5-dimethyl-1H-pyrazol-4-yl)piperazin-1-yl)-4-fluorobenzoic acid] | – | – | – | – | > 1 h | > 1 h | > 1 h | > 1 h | changes in serum TTR levels (serum RBP4 levels): No changes
5 | COc1ccc(C(=O)O)cc1N1CCN(c2c(C)n[nH]c2C)CC1 [20b, 3-(4-(3,5-dimethyl-1H-pyrazol-4-yl)piperazin-1-yl)-4-methoxybenzoic acid] | > 1 h | > 1 h | > 1 h | > 1 h | – | – | – | – | solubility [6]: ≥ 200 µM; microsomal CLint ([2]; liver microsomes): < 23.1 µL/min/mg; remaining at 0.5 h ([2]; liver microsomes): 108%; microsomal CLint ([3]; liver microsomes): < 23.1 µL/min/mg; remaining at 0.5 h ([3]; liver microsomes): 101%; microsomal CLint ([4]; liver microsomes): < 23.1 µL/min/mg; remaining at 0.5 h ([4]; liver microsomes): 102%; microsomal CLint ([5]; monkey, liver microsomes): < 23.1 µL/min/mg; remaining at 0.5 h ([5]; monkey, liver microsomes): 102%; inhibition at 10 µM (CYP2C9): 1.4%; inhibition at 10 µM (CYP2C19): 4.2%; inhibition at 10 µM (CYP2D6): 8%; inhibition at 10 µM (CYP3A4): 19.6%; fraction unbound [7]: 0.25; fraction unbound [8]: 0.22
6 | Cc1n[nH]c(C)c1N1CCN(c2cc(C(=O)O)ccc2C(F)(F)F)CC1 [20d, 3-(4-(3,5-dimethyl-1H-pyrazol-4-yl)piperazin-1-yl)-4-(trifluoromethyl)benzoic acid] | – | – | – | – | > 1 h | > 1 h | > 1 h | > 1 h | –
7 | Cc1ccc(C(=O)O)cc1N1CCN(c2c(C)n[nH]c2C)CC1 [20c, 3-(4-(3,5-dimethyl-1H-pyrazol-4-yl)piperazin-1-yl)-4-methylbenzoic acid] | – | – | – | – | > 1 h | > 1 h | > 1 h | > 1 h | –
8 | Cc1n[nH]c(C)c1CCCOc1cc(C(=O)O)ccc1F [AG10, acoramidis] | – | – | – | – | – | – | – | – | stabilization of TTR (ATTR-CM [9]; ATTR-CM patients with symptomatic chronic heart failure): near-complete stabilization; tolerability (ATTR-CM [9]): well tolerated
9 | Cc1n[nH]c(C)c1N1CCN(c2cc(-c3nn[nH]n3)ccc2F)CC1 [compound 54, 1-(3,5-dimethyl-1H-pyrazol-4-yl)-4-(2-fluoro-5-(2H-tetrazol-5-yl)phenyl)piperazine] | – | – | – | – | 1.26 h | < 1 h | < 1 h | < 1 h | microsomal CLint ([2]; microsomes): 18.4 µL/min/mg
